The source of these data is paper PMC4790305, “An FDA-Drug Library Screen for Compounds with Bioactivities against Meticillin-Resistant Staphylococcus aureus (MRSA)” (Antibiotics, 2015).

Structures are written as SMILES. Converted amounts (≈) assume the structure as drawn.

Series [1] relates to Adult normal human epidermal keratinocytes (NHEK). In words: Human epidermal keratinocyte viability (GI50) assay. It counts as cell-based. To be noted: 120 h, 5 days incubation, CellTiter-Glo, read-out: Keratinocyte GI50. As to the method:
Adult normal human epidermal keratinocytes (NHEK) were purchased from Lonza (catalog #00192627, Basel, Switzerland) and cultured in keratinocyte growth medium (Lonza KGM-Gold Bullet Kit) containing growth supplements (Lonza Reagent Pack) at 5% CO2 (37 °C). The cell viability assay was performed using the CellTiter-Glo Luminescent Cell Viability Assay protocol from Promega (www.promega.com, Fitchburg, WI, USA). Briefly, NHEK were treated with test compounds in keratinocyte growth medium in 96-well plates (Thermo Scientific Nunclon Delta, Waltham, MA, USA). Treated cells were incubated for 5 days at 5% CO2 (37 °C). Promega CellTiter-Glo Reagent was added and plates were shaken on an orbital shaker for […]. Next, well contents (100 μL) from each well were transferred into opaque 96-well plates (PerkinElmer OptiPlate-96) and luminescence measured by a microplate reader (Tecan Safire2).

The subject of series [2] is human carcinoma cell lines. To be noted: cited from earlier work.
Series [3] has as its system MRSA USA 300 (ATCC-BAA-1680). As to the kind of experiment: Minimum inhibitory concentration (MIC) assay, MRSA USA 300. Format: cell-based, meticillin-resistant Staphylococcus aureus. To be noted: Staphylococcus aureus; microdilution, overnight 35 °C; read-out: MRSA MICs USA 300. The source says:
(§1) The 1163 FDA-approved drugs were purchased as a library set from Selleckchem (catalog #L1300). For MIC assays, Ivacaftor, Mupirocin and Tigecycline were purchased from Santa Cruz Biotechnology (Dallas, TX, USA). All other test compounds were purchased from Sigma-Aldrich (St. Louis, MO, USA) and were used without further purification. MRSA strains USA 100 (ATCCBAA-1681), USA 300 (ATCC-BAA-1680), USA400 (ATCC-BAA-1707) and VISA (ATCC-700699) were purchased from ATCC (Manassas, VA, USA).
(§2) The MICs of antibiotics and peptides were determined using the microdilution method from the Clinical and Laboratory Standards Institute (CLSI) guidelines. Briefly, bacteria were grown fresh from frozen stock in MH2 agar at 37 °C. After an overnight incubation, five MRSA colonies were selected to grow in cation-adjusted MH2 broth (BD Biosciences catalog #212322) in a shaker incubator at 37 °C, 220 RPM. Cells were grown to an optical density (OD600) of 0.15–0.16 using a Microplate Spectrophotometer (Molecular Devices Spectra Max Plus), which corresponds to 1–2 × 10^8 CFU/mL. Test compounds were constituted into 4 mM DMSO stock solutions and then subjected to two-fold serial dilution in a 96-well plate with concentrations ranging from 100 to 0.2 μM in duplicates. The amount of 50 μL of microbial culture containing ~1–2 × 10^6 CFU/mL of microbes in the respective broths was introduced into each well containing 50 μL of compound. After an overnight incubation at 35 °C, OD600 measurements were conducted using the Microplate Spectrophotometer. The MIC was defined as the lowest drug concentration (μM) required to inhibit microbial growth.

For series [4] the following is noted: cited from earlier work.
For series [5], the system named is panel of clinical MRSA strains (USA 100, USA 300, USA 400 and VISA). As to the kind of experiment: MIC assay against panel of clinical MRSA strains. Particulars: Staphylococcus aureus; across USA 100, USA 300, USA 400 and VISA. Format: cell-based, meticillin-resistant Staphylococcus aureus.
Source text: as §1, §2

The next series relates to VISA (ATCC-700699). In words: Minimum inhibitory concentration (MIC) assay, VISA. It counts as cell-based, meticillin-resistant Staphylococcus aureus. To be noted: Staphylococcus aureus, ATCC 700699 / MRSA / VISA; microdilution, overnight 35 °C; read-out: MRSA MICs VISA.
Source text: as §1, §2

The test system of the next series is MRSA USA100. In words: Single-point 10 μM bacteria growth inhibition assay. Particulars: MRSA USA 100. It counts as cell-based, meticillin-resistant Staphylococcus aureus.
Source text: as §1
MRSA USA100 was grown from frozen glycerol stock on Mueller Hinton 2 (MH2) agar overnight at 37 °C. Five colonies were selected from the agar plate and grown in cation-adjusted MH2 broth (BD Biosciences catalog #212322, Franklin Lakes, NJ, USA) in a shaker incubator at 37 °C, 220 RPM. Cells were grown to 1–2 × 10^8 CFU/mL and diluted 1:100 in MH2 broth. An amount of 50 μL of test compounds pre-dissolved in MH2 broth at 20 μM concentrations were added in duplicates into each well in a 96-well plate. A total of 50 μL of bacteria inoculums containing ~1 × 10^6 CFU/mL of bacteria in MH2 broth was introduced into each well containing the test compounds. The final DMSO concentration was kept at 2.5% in each well. After an overnight incubation at 35 °C, optical density (OD600) of each well was determined using the Microplate Spectrophotometer (Molecular Devices Spectra Max Plus, Sunnyvale, CA, USA).

The test system of series [6] is MRSA USA400 (ATCC-BAA-1707). As to the kind of experiment: Minimum inhibitory concentration (MIC) assay, MRSA USA 400. Format: cell-based, meticillin-resistant Staphylococcus aureus. Particulars: Staphylococcus aureus; microdilution, overnight 35 °C; read-out: MRSA MICs USA 400.
Source text: as §1, §2

Series [7] has as its system MRSA USA 100 (ATCCBAA-1681). As to the kind of experiment: Minimum inhibitory concentration (MIC) assay, MRSA USA 100. Format: cell-based, meticillin-resistant Staphylococcus aureus. To be noted: Staphylococcus aureus; microdilution, overnight 35 °C; read-out: MRSA MICs USA 100.
Source text: as §1, §2

For the compound `O=C(Nc1ccc([N+](=O)[O-])cc1Cl)c1cc(Cl)ccc1O` [Niclosamide], the GI50 in [1] is less than 200 nM. Also, the “cytotoxic concentrations towards human carcinoma cell lines” value in [2] is “sub-micromolar”. Also, the MIC was 0.39 µM (≈ 0.128 µg/mL) in series [3]; 0.39 to 0.78 µM (≈ 0.128 to 0.255 µg/mL) in series [5]; 0.39 µM (≈ 0.128 µg/mL) in the series on VISA (ATCC-700699); 0.78 µM (≈ 0.255 µg/mL) in series [6]; 0.78 µM (≈ 0.255 µg/mL) in [7]. For the same compound, the “oral LD50” value in series [4] was greater than 1000 mg/kg. For the same compound, in the series with MRSA USA100, the “Antibacterial activity in single-point screen” value is listed as “either bacteriostatic or bactericidal”.
